# Test results published in ChEMBL document CHEMBL1139796, “Novel anti-tuberculosis agents from MCR libraries” (Bioorg Med Chem Lett, 2007).
# System: Mycobacterium tuberculosis
# Experiment: Antimycobacterial activity against Mycobacterium tuberculosis at 12.5 ug/ml
# Type: functional
# Conditions: read-out: GI
row,Compound,inhibition of growth at 12.5 µg/mL
1,C=CCNC(=O)C(CCCCC)N(C(=O)c1cccnc1)C1CCCCC1 (stereo unspecified),100%
2,C=CCNC(=O)C(C=C)(CC)N(C(=O)c1cccnc1)C(C)c1ccccc1 (stereo unspecified),73%
3,C=CCNC(=O)C(N(CCCn1ccnc1)C(=O)c1cccnc1)C(Cl)(Cl)Cl (stereo unspecified),61%
4,C=CCNC(=O)C(CCCCC)N(CC(C)(C)C)C(=O)c1cccnc1 (stereo unspecified),73%
5,C=CCNC(=O)C1(N(CCCn2ccnc2)C(=O)c2cccnc2)CCCc2cc(OC)ccc21 (stereo unspecified),69%
6,C=CCNC(=O)C1(N(C(=O)c2cccnc2)C2CCCCC2)CCCc2cc(OC)ccc21 (stereo unspecified),72%
7,C=CCNC(=O)C(CCCC)N(CCCn1ccnc1)C(=O)c1cccnc1 (stereo unspecified),89%
8,C=CCNC(=O)C(CCCC)N(C(=O)c1cccnc1)C1CCCCC1 (stereo unspecified),100%
9,C=CCNC(=O)C(CCCC)N(CC=C)C(=O)c1cccnc1 (stereo unspecified),100%
10,C=CCNC(=O)C(CCCC)N(C(=O)c1cccnc1)C1CC1 (stereo unspecified),96%
11,C=CCNC(=O)C(C(C)C)N(C(=O)c1cccnc1)C(C)c1ccccc1 (stereo unspecified),77%
12,C=CCNC(=O)C(N(Cc1ccncc1)C(=O)c1cccnc1)C(F)(F)F (stereo unspecified),58%
13,C=CCNC(=O)C(N(CCCn1ccnc1)C(=O)c1cccnc1)C(F)(F)F (stereo unspecified),71%
14,C=CCNC(=O)C(C(C)C)N(CC(C)(C)C)C(=O)c1cccnc1 (stereo unspecified),76%
15,C=CCNC(=O)C(N(C(=O)c1cccnc1)C1CC1)C(Cl)(Cl)Cl (stereo unspecified),9%
16,C=CCNC(=O)C(N(C(=O)c1cccnc1)C1CCCCC1)C(F)(F)F (stereo unspecified),60%
17,C=CCNC(=O)C(N(CCCN1CCOCC1)C(=O)c1cccnc1)C(F)(F)F (stereo unspecified),72%
18,C=CCNC(=O)C(N(C(=O)c1cccnc1)C1CC1)C(F)(F)F (stereo unspecified),74%
19,C=CCNC(=O)C(C)(c1ccccc1)N(C(=O)c1cccnc1)C(C)c1ccccc1 (stereo unspecified),83%
20,C=CCNC(=O)C1(N(CCCn2ccnc2)C(=O)c2cccnc2)CCN(Cc2ccccc2)CC1,46%
21,C=CCNC(=O)C1(N(CC=C)C(=O)c2cccnc2)CCN(Cc2ccccc2)CC1,94%
22,C=CCNC(=O)C1(N(C(=O)c2cccnc2)C(C)c2ccccc2)CCN(Cc2ccccc2)CC1 (stereo unspecified),54%
23,C=CCNC(=O)C(C)(C)N(C(=O)c1cccnc1)C(C)c1ccccc1 (stereo unspecified),83%
24,C=CCNC(=O)C(C)(C)N(C(=O)c1cccnc1)C1CC1,64%

row,Compound,inhibition of growth at 12.5 µg/mL
1,C=CCNC(=O)C(C=C)(CC)N(Cc1ccncc1)C(=O)c1cccnc1 (stereo unspecified),23%
2,C=CCNC(=O)C(C(C)C)N(CCCN1CCOCC1)C(=O)c1cccnc1 (stereo unspecified),33%
3,C=CCNC(=O)C(N(CC=C)C(=O)c1cccnc1)C(F)(F)F (stereo unspecified),6%
4,C=CCNC(=O)C(C)(c1ccccc1)N(CC(C)(C)C)C(=O)c1cccnc1 (stereo unspecified),67%
5,C=CCNC(=O)C(C)(c1ccccc1)N(C(=O)c1cccnc1)C1CC1 (stereo unspecified),72%
6,C=CCNC(=O)C1(N(Cc2ccncc2)C(=O)c2cccnc2)CCCCC1,87%
7,C=CCNC(=O)C1(N(CC(C)(C)C)C(=O)c2cccnc2)CCN(Cc2ccccc2)CC1,28%
8,C=CCNC(=O)C1(N(CCCN2CCOCC2)C(=O)c2cccnc2)CCN(Cc2ccccc2)CC1,33%
9,C=CCNC(=O)C(C)(C(C)C)N(Cc1ccncc1)C(=O)c1cccnc1 (stereo unspecified),52%
10,C=CCNC(=O)C(C)(c1ccccc1)N(C(=O)c1cccnc1)C1CCCCC1 (stereo unspecified),57%
11,C=CCNC(=O)C1(N(C(=O)c2cccnc2)C2CCCCC2)CCCCC1,76%
12,C=CCNC(=O)C1(N(CC=C)C(=O)c2cccnc2)CCCCC1,80%
13,C=CCNC(=O)C1(N(C(=O)c2cccnc2)C(C)c2ccccc2)CCCCC1 (stereo unspecified),74%
14,C=CCNC(=O)C(C)(C(C)C)N(CC=C)C(=O)c1cccnc1 (stereo unspecified),69%
15,C=CCNC(=O)C(C)(C(C)C)N(C(=O)c1cccnc1)C(C)c1ccccc1 (stereo unspecified),83%
16,C=CCNC(=O)C(C)(C)N(CC=C)C(=O)c1cccnc1,76%
17,C=CCNC(=O)C(C(C)C)N(C(=O)c1cccnc1)C1CC1 (stereo unspecified),57%
18,C=CCNC(=O)C(N(CC(C)(C)C)C(=O)c1cccnc1)C(F)(F)F (stereo unspecified),77%
19,C=CCNC(=O)C1(N(CC(C)(C)C)C(=O)c2cccnc2)CCCCC1,99%
20,C=CCNC(=O)C1(N(CCCN2CCOCC2)C(=O)c2cccnc2)CCCCC1,49%
21,C=CCNC(=O)C1(N(C(=O)c2cccnc2)C2CC2)CCCCC1,71%
22,C=CCNC(=O)C(C)(C(C)C)N(CCCN1CCOCC1)C(=O)c1cccnc1 (stereo unspecified),64%
23,C=CCNC(=O)C(C)(C)N(Cc1ccncc1)C(=O)c1cccnc1,51%
24,C=CCNC(=O)C(C)(C)N(CC(C)(C)C)C(=O)c1cccnc1,71%

row,Compound,inhibition of growth at 12.5 µg/mL
1,C=CCNC(=O)C(CCCC)N(C(=O)c1cccnc1)C(C)c1ccccc1 (stereo unspecified),100%
2,C=CCNC(=O)C(CCCCC)N(CC=C)C(=O)c1cccnc1 (stereo unspecified),11%
3,C=CCNC(=O)C(C=C)(CC)N(CCCN1CCOCC1)C(=O)c1cccnc1 (stereo unspecified),31%
4,C=CCNC(=O)C(C=C)(CC)N(C(=O)c1cccnc1)C1CCCCC1 (stereo unspecified),84%
5,C=CCNC(=O)C(N(C(=O)c1cccnc1)C1CCCCC1)C(Cl)(Cl)Cl (stereo unspecified),74%
6,C=CCNC(=O)C(CCCCC)N(CCCN1CCOCC1)C(=O)c1cccnc1 (stereo unspecified),74%
7,C=CCNC(=O)C(N(CC=C)C(=O)c1cccnc1)C(Cl)(Cl)Cl (stereo unspecified),6%
8,C=CCNC(=O)C(C(C)C)N(Cc1ccncc1)C(=O)c1cccnc1 (stereo unspecified),50%
9,C=CCNC(=O)C(C(C)C)N(CCCn1ccnc1)C(=O)c1cccnc1 (stereo unspecified),43%
10,C=CCNC(=O)C1(N(CC(C)(C)C)C(=O)c2cccnc2)CCCc2cc(OC)ccc21 (stereo unspecified),72%
11,C=CCNC(=O)C1(N(CCCN2CCOCC2)C(=O)c2cccnc2)CCCc2cc(OC)ccc21 (stereo unspecified),64%
12,C=CCNC(=O)C(N(C(=O)c1cccnc1)C(C)c1ccccc1)C(F)(F)F (stereo unspecified),90%
13,C=CCNC(=O)C(C)(c1ccccc1)N(Cc1ccncc1)C(=O)c1cccnc1 (stereo unspecified),68%
14,C=CCNC(=O)C(C)(C)N(C(=O)c1cccnc1)C1CCCCC1,92%
15,C=CCNC(=O)C(C)(c1ccccc1)N(CCCn1ccnc1)C(=O)c1cccnc1 (stereo unspecified),71%
16,C=CCNC(=O)C(C)(C)N(CCCN1CCOCC1)C(=O)c1cccnc1,70%
17,C=CCNC(=O)C(C=C)(CC)N(CCCn1ccnc1)C(=O)c1cccnc1 (stereo unspecified),23%
18,C=CCNC(=O)C(C)(c1ccccc1)N(CCCN1CCOCC1)C(=O)c1cccnc1 (stereo unspecified),72%
19,C=CCNC(=O)C(C(C)C)N(CC=C)C(=O)c1cccnc1 (stereo unspecified),6%
20,C=CCNC(=O)C1(N(CCCn2ccnc2)C(=O)c2cccnc2)CCCCC1,43%
21,C=CCNC(=O)C1(N(Cc2ccncc2)C(=O)c2cccnc2)CCN(Cc2ccccc2)CC1,64%
22,C=CCNC(=O)C(C)(C(C)C)N(CC(C)(C)C)C(=O)c1cccnc1 (stereo unspecified),62%
23,C=CCNC(=O)C(C)(C(C)C)N(C(=O)c1cccnc1)C1CC1 (stereo unspecified),67%
24,C=CCNC(=O)C(C)(c1ccccc1)N(CC=C)C(=O)c1cccnc1 (stereo unspecified),69%

row,Compound,inhibition of growth at 12.5 µg/mL
1,C=CCNC(=O)C1(N(C(=O)c2cccnc2)C2CCCCC2)CCN(Cc2ccccc2)CC1,101%
2,C=CCNC(=O)C1(N(C(=O)c2cccnc2)C2CC2)CCN(Cc2ccccc2)CC1,43%
3,C=CCNC(=O)C(C)(C(C)C)N(C(=O)c1cccnc1)C1CCCCC1 (stereo unspecified),95%
4,C=CCNC(=O)C(CCCCC)N(C(=O)c1cccnc1)C1CC1 (stereo unspecified),90%
5,C=CCNC(=O)C(CCCCC)N(CCCn1ccnc1)C(=O)c1cccnc1 (stereo unspecified),82%
6,C=CCNC(=O)C(CCCCC)N(Cc1ccncc1)C(=O)c1cccnc1 (stereo unspecified),89%
7,C=CCNC(=O)C(N(C(=O)c1cccnc1)C(C)c1ccccc1)C(Cl)(Cl)Cl (stereo unspecified),82%
8,C=CCNC(=O)C1(N(CC=C)C(=O)c2cccnc2)CCCc2cc(OC)ccc21 (stereo unspecified),80%
9,C=CCNC(=O)C(C=C)(CC)N(CC=C)C(=O)c1cccnc1 (stereo unspecified),39%
10,C=CCNC(=O)C1(N(C(=O)c2cccnc2)C2CC2)CCCc2cc(OC)ccc21 (stereo unspecified),69%
11,C=CCNC(=O)C1(N(Cc2ccncc2)C(=O)c2cccnc2)CCCc2cc(OC)ccc21 (stereo unspecified),63%
12,C=CCNC(=O)C(N(CC(C)(C)C)C(=O)c1cccnc1)C(Cl)(Cl)Cl (stereo unspecified),74%
13,C=CCNC(=O)C(N(Cc1ccncc1)C(=O)c1cccnc1)C(Cl)(Cl)Cl (stereo unspecified),49%
14,C=CCNC(=O)C(C=C)(CC)N(CC(C)(C)C)C(=O)c1cccnc1 (stereo unspecified),60%
15,C=CCNC(=O)C(N(CCCN1CCOCC1)C(=O)c1cccnc1)C(Cl)(Cl)Cl (stereo unspecified),78%
16,C=CCNC(=O)C1(N(C(=O)c2cccnc2)C(C)c2ccccc2)CCCc2cc(OC)ccc21 (stereo unspecified),82%
17,C=CCNC(=O)C(C=C)(CC)N(C(=O)c1cccnc1)C1CC1 (stereo unspecified),50%
18,C=CCNC(=O)C(CCCC)N(CCCN1CCOCC1)C(=O)c1cccnc1 (stereo unspecified),69%
19,C=CCNC(=O)C(CCCCC)N(C(=O)c1cccnc1)C(C)c1ccccc1 (stereo unspecified),95%
20,C=CCNC(=O)C(CCCC)N(Cc1ccncc1)C(=O)c1cccnc1 (stereo unspecified),96%
21,C=CCNC(=O)C(CCCC)N(CC(C)(C)C)C(=O)c1cccnc1 (stereo unspecified),102%
22,C=CCNC(=O)C(C)(C(C)C)N(CCCn1ccnc1)C(=O)c1cccnc1 (stereo unspecified),54%
23,C=CCNC(=O)C(C(C)C)N(C(=O)c1cccnc1)C1CCCCC1 (stereo unspecified),62%
24,C=CCNC(=O)C(C)(C)N(CCCn1ccnc1)C(=O)c1cccnc1,57%
